For orientation: IC50 means the concentration that inhibits the measured activity by half.

Assay [1] relates to Sox2, Gli1, Yap1 mRNA in A549 cells. As to the kind of experiment: QRT-PCR assay for stem cell transcription factors. It counts as cell-based. Conditions: A549, 72 hours. The protocol: (§1) Given the effects of HDAC11 inhibition on stem-like side population cells, the effects on the expression of stem cell transcription factors was determined using QRT-PCR. A549 or H1650 cells were plated in 60 mm cell culture dishes (120,000 cells). The next day, HDAC11 inhibitors were added at various concentrations and incubated for 72 hours. For the siRNA experiments, A549 cells were plated in 60 mm cell culture dishes (120,000 cells per dish). The siRNAs (Santa Cruz Biotechnologies sc-106896 or ThermoFisher Scientific Cat#4392420) were transfected at a concentration of 100 and 150 pmoles into cells using Oligofectamine reagent (Invitrogen) as per manufacturer's protocol. A non-targeting siRNA (Ambion AM4635) was used as a control for all the transfection experiments. The cells were harvested after 72 hours post transfection. At the end of the treatments, cells were scraped, lysed and total RNA was isolated by RNeasy miniprep kit from Qiagen following the manufacturer's protocol (RNeasy mini kit Cat No. 74104). 1 μg of RNA was converted into cDNA using iScript cDNA synthesis kit (BioRad) in a 20 μl total reaction volume. Levels of mRNA were further analyzed using quantitative real time-PCR (qRT-PCR) that was performed in CFX96 Real time system using BioRad iQ SYBR Green supermix. The reaction was set with 5 μl of SYBR Green, 1 μl of 1 μM Forward primer, 1 μl of 1 μM Reverse primer, 0.5 μl of cDNA and 4.5 μl of water in a total 12 μl reaction. Data was normalized using GAPDH as an internal control and fold change was calculated by 2^−Delta-DeltaCt method. First the Delta-Ct was calculated (Delta-Ct=Ct Gene−Ct GAPDH). Next Delta-Delta-Ct was calculated (Delta-Delta-Ct=Delta-Ct treatment−Delta-Ct control). Finally fold change was calculated by 2^−Delta-DeltaCt.

Assay [2] has as its system Sox2, Gli1, Yap1 mRNA in H1650 cells. As to the kind of experiment: QRT-PCR assay for stem cell transcription factors. Particulars: H1650, 72 hours. It counts as cell-based. How it is done:
as §1

In assay [3] the test system is myeloid cells from MPN patients. The assay is described as follows: Colony formation assay from MPN patient samples. Particulars: MPN patient samples (ET; PV Ruxolitinib resistant), scored 12 to 14 days. The format is cell-based, human. The protocol: (§2) To determine the effects of selective HDAC11 inhibition on MPN patient samples, the effects of HDAC11 inhibitors were evaluated in a colony formation assay with erythroid or myeloid cells from MPN patients. Peripheral blood was obtained from MPN patients consented through the Moffitt Cancer Center Total Cancer Care protocol (MCC 14690). Blood was treated with HetaSep™ (STEMCELL Technologies, Inc.) to remove the majority of red blood cells. Peripheral blood mononuclear cells (PBMCs) were isolated by ficoll separation. PBMCs (1-4×105) were then plated in 1 mL of methylcellulose medium containing rhSCF, rhIL-3, and granulocyte-macrophage colony-stimulating factor (rhGM-CSF) (MethoCult™ #H4534; STEMCELL Technologies, Inc.). All drug treated samples contained 0.1% DMSO as the final concentration. Cells were incubated at 37° C. and 5% CO2 in a humidified incubator. Colonies were scored 12 to 14 days after plating.

The test system of assay [4] is erythroid cells from MPN patients. The assay is described as follows: Colony formation assay from MPN patient samples. It counts as cell-based, human. Conditions: MPN patient samples (ET; PV Ruxolitinib resistant), scored 12 to 14 days. The protocol: as §2
The test system of assay [5] is STAT5 phosphorylation in HEL 92.1.7 cells. As to the kind of experiment: STAT3 and STAT5 phosphorylation western blot assay. The format is cell-based. Conditions: HEL 92.1.7, western blot. How it is done: (§3) The effects of selective HDAC11 inhibition on STAT3 and […] phosphorylation in HEL 92.1.7 cells were determined by western blot. Cells were treated with HDAC11 inhibitors and lysed in RIPA buffer (Sigma-Aldrich, St. Louis, Mo.) supplemented with protease inhibitors (Roche, Basel, Switzerland) and phosphatase inhibitors (Sigma P5726). Protein concentrations were determined with Pierce BCA protein assay kit (Thermo Fisher Scientific, Waltham, Mass.). Proteins were separated on a 4-12% Bis-Tris gradient electrophoresis gel (Life Technologies, Carlsbad, Calif.) and transferred onto a nitrocellulose membrane. The membrane was then blocked in either 5% nonfat dry milk or 5% BSA followed by incubation with primary antibodies at 4° C. overnight. Antibodies for p-STAT5 (Abcam 32364), STAT5 (Cell Signaling 9358), p-STAT3 (Cell Signaling 9145) and STAT3 (Cell Signaling 9139) were used. β-actin was used as loading control.
Background: Immunoblotting shows a protein as a band on a membrane.

Assay [6] has as its system STAT3 phosphorylation in HEL 92.1.7 cells. As to the kind of experiment: STAT3 and STAT5 phosphorylation western blot assay. The format is cell-based. Particulars: HEL 92.1.7, western blot. How it is done:
as §3

Assay [7] has as its target Full length human recombinant HDAC11 (Homo sapiens (Human), UniProt Q96DB2). The assay is described as follows: Enzymatic HDAC11 assay, electrophoretic mobility shift. The format is biochemical. Particulars: substrate FAM-RHKK(tri-fluor-Ac)-NH2, read-out: HDAC11 IC50 Range. Put shortly: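 Baculovirus-expressed enzyme (10 nM) with 2 μM FAM-RHKK(tri-fluor-Ac)-NH2 in 100 mM HEPES pH 7.5, 25 mM KCl, 0.1% BSA, 0.01% Triton X-100, 1% DMSO at 25 °C. Substrate and product separated by microfluidic electrophoresis; inhibition from product/(substrate+product) ratio. IC50 by 4-parameter fit over 12 concentrations.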
Background: Mobility shift assays separate free from complexed probe on a gel.

Chain of Full length human recombinant HDAC11 (Q96DB2 whole entry): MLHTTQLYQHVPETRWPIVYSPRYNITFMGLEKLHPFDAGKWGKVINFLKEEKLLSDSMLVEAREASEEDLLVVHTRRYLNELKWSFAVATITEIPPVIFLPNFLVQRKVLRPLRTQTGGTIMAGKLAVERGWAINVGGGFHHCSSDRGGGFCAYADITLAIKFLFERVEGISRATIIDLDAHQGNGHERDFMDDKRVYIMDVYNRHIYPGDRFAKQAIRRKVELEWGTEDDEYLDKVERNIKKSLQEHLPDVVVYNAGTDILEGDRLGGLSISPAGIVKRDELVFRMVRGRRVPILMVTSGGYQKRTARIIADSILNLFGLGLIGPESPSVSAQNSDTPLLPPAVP

For the compound `O=C(NO)c1cccc(Nc2nc3cc(Cl)c(Cl)cc3o2)c1` [HDTK010, 3-((5,6-dichlorobenzo[d]oxazol-2-yl)amino)-N-hydroxybenzamide], in assay [1], the “expression of Gli1 and Yap1” value is on record as “decreased expression”; the “expression of Sox2” value is on record as “decreased expression”. Moreover, in assay [2], the “expression of Gli1 and Yap1” value is “decreased expression”; the “expression of Sox2” value is given as “decreased expression”. Further, the “growth of colonies from myeloid cells” value in assay [3] is “reduced the growth of colonies”. For the same compound, in assay [4], the “growth of colonies from erythroid cells” value is reported as “reduced the growth of colonies”. Moreover, the STAT5 phosphorylation result in assay [5] is “inhibited”. For the same compound, in assay [6], the STAT3 phosphorylation result is reported as “inhibited”.
On to `O=C(NO)c1cccc2c1C[C@]1(CCN(Cc3ccc(Cl)c(C(F)(F)F)c3)C1=O)C2` [HDTK054, (S)-1′-(4-chloro-3-(trifluoromethyl)benzyl)-N-hydroxy-2′-oxo-1,3-dihydrospiro[indene-2,3′-pyrrolidine]-4-carboxamide], for which the IC50 in assay [7] is under 500 nM. In assay [1], the “expression of Gli1 and Yap1” value was “decreased expression”; the “expression of Sox2” value is listed as “decreased expression”. Further, in assay [2], the “expression of Gli1 and Yap1” value is on record as “decreased expression”; the “expression of Sox2” value is listed as “decreased expression”.

Source of the values: patent publication US10508088B2, “Methods using HDAC11 inhibitors” (FORMA Therapeutics, Inc., priority 2016, dated 2019).
